Here are results for 75 compounds from ChEMBL document CHEMBL4808148, “HDAC6 screening dataset using tau-based substrate in an enzymatic assay yields selective inhibitors and activators” (2021).

Molecules are shown by their SMILES.

This assay addresses T1, Protein deacetylase HDAC6 (Homo sapiens) (UniProt Q9UBN7).
T1 sequence (whole entry): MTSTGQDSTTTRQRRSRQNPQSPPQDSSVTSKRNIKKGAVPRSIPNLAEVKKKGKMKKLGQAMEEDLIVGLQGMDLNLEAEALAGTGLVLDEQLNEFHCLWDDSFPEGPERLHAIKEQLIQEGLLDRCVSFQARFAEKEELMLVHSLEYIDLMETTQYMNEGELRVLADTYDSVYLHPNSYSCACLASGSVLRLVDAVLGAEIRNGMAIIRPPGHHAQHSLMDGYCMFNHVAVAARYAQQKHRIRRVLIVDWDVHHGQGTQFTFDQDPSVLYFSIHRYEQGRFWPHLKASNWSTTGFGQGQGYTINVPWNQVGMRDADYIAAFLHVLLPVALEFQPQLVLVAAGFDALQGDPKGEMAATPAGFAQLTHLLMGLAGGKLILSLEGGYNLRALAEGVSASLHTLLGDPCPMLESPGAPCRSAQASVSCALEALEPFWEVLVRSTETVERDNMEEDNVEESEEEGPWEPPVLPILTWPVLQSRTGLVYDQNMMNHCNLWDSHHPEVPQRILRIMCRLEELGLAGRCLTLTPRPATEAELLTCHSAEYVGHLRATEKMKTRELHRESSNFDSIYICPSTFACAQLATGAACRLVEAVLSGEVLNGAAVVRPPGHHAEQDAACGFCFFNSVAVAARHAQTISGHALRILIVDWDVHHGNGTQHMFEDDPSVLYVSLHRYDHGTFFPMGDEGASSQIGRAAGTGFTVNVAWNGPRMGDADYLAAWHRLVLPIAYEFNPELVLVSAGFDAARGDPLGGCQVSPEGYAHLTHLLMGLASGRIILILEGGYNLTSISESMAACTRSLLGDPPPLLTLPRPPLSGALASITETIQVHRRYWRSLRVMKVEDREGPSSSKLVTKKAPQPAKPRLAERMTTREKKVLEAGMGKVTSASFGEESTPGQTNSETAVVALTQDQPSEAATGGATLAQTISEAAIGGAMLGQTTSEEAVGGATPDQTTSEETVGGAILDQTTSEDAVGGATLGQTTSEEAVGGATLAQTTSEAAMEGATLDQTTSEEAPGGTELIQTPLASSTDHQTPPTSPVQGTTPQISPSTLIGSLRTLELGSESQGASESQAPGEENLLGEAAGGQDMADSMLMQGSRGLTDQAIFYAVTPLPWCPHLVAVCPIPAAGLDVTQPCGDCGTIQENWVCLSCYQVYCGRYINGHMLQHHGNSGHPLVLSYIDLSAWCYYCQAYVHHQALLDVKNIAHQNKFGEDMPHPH
The note with it: at 10 µM.
For `Cc1cc(C)c(N)c(C#Cc2cccc(F)c2)n1`, the inhibition (commonly the change of the read-out against control, counted positive when it falls) stood at 74.2%.

As for `Cc1cc(O)c2c(c1)C(=O)c1cccc(O)c1C2=O`, the inhibition is 65.1%.

`O=C(OCC(O)CO)c1ccccc1Nc1ccnc2cc(Cl)ccc12` (stereo not given): the inhibition is 83.6%.

On to `O=C(N/N=C/c1ccccc1O)c1ccccc1O`, for which the inhibition came to 107%.

With `OCCOCCN1CCN(C(c2ccccc2)c2ccc(Cl)cc2)CC1` (stereo not given), the inhibition was -6.68%.

As for `CN1[C@@H]2C[C@@H](O)C[C@H]1[C@@H]1O[C@@H]12`, the inhibition stood at 67.9%.

Regarding `O=c1c2ccccc2[se]n1-c1ccccc1`, the inhibition was 3.77%.

`O=C1c2ccccc2C(=O)C1c1ccc(Br)cc1`: the inhibition was found to be 38.3%.

With `COc1cc2nc(C3CC3)nc(N3CCN(c4ccccc4OC)CC3)c2cc1OC`, the inhibition was 56.3%.

For `CCC(=O)NO`, the inhibition was 37.4%.

As to `C=CC(C)(C)c1cc(/C=C/C(=O)c2ccc(O)cc2)c(OC)cc1O`, the inhibition is 52.1%.

As for `COc1ccc(-c2coc3cc(O)cc(O)c3c2=O)cc1`, the inhibition came out at 101%.

On to `Cc1c(CN(C)C(=O)/C=C/c2cnc3c(c2)CCC(=O)N3)oc2ccccc12`, for which the inhibition was determined as 0.5%.

For the compound `Cc1ccc(NC(=O)c2ccc(CN3CCN(C)CC3)cc2)cc1Nc1nc(-c2cccnc2)cs1`, the inhibition is 22.6%.

As to `c1ccc(-c2cnn3cc(-c4ccc(OCCN5CCOCC5)cc4)cnc23)cc1`, the inhibition came to 106%.

Turning to `CCCCc1nc2cc(/C=C/C(=O)NO)ccc2n1CCN(CC)CC`, the inhibition worked out at 83.5%.

Regarding `Nc1nc(N)c(N=O)c(OCC2CCCCC2)n1`, the inhibition came to 83.5%.

Consider `CCCCCCCCCCCCCCCC(=O)N[C@@H](CCC(=O)NCCCC[C@H](NC(=O)[C@H](C)NC(=O)[C@H](C)NC(=O)[C@H](CCC(N)=O)NC(=O)CNC(=O)[C@H](CCC(=O)O)NC(=O)[C@H](CC(C)C)NC(=O)[C@H](Cc1ccc(O)cc1)NC(=O)[C@H](CO)NC(=O)[C@H](CO)NC(=O)[C@@H](NC(=O)[C@H](CC(=O)O)NC(=O)[C@H](CO)NC(=O)[C@@H](NC(=O)[C@H](Cc1ccccc1)NC(=O)[C@@H](NC(=O)CNC(=O)[C@H](CCC(=O)O)NC(=O)[C@H](C)NC(=O)[C@@H](N)Cc1cnc[nH]1)[C@@H](C)O)[C@@H](C)O)C(C)C)C(=O)N[C@@H](CCC(=O)O)C(=O)N[C@@H](Cc1ccccc1)C(=O)N[C@H](C(=O)N[C@@H](C)C(=O)N[C@@H](Cc1c[nH]c2ccccc12)C(=O)N[C@@H](CC(C)C)C(=O)N[C@H](C(=O)N[C@@H](CCCNC(=N)N)C(=O)NCC(=O)N[C@@H](CCCNC(=N)N)C(=O)NCC(=O)O)C(C)C)[C@@H](C)CC)C(=O)O`, for which the inhibition stood at 15.4%.

As to `CN1CCCN=C1/C=C/c1cccs1`, the inhibition worked out at 42%.

`N#Cc1cc(F)cc(-c2nc(-c3ccc(F)cn3)no2)c1`: the inhibition is 55.6%.

Turning to `O=C(CCCCCCNC(=O)c1cnc(N(c2ccccc2)c2ccccc2)nc1)NO`, the inhibition was 105%.

Take `N#C/C(=C\c1ccc(O)c(O)c1)C(=O)Nc1ccccc1`: the inhibition amounted to 58.9%.

In the case of `O=C(O)CNC(=O)c1c(O)c2ccccc2n(Cc2ccccc2)c1=O`, the inhibition amounted to 73.4%.

In the case of `NCCNc1ccc(NCCN)c2c1C(=O)c1ccncc1C2=O`, the inhibition was determined as 108%.

As to `CCC(CC)(CC(=O)Nc1cccc(/C=C/c2nc(C3CCC3)cs2)c1)C(=O)O`, the inhibition was determined as 36.2%.

As to `CC(C)(C)C1CCc2c(sc(NC(=O)c3ccco3)c2C(=O)O)C1` (stereo not given), the inhibition came out at 73.7%.

Take `N[C@@H]1CCCN(c2c(/C=C3\SC(=O)NC3=O)cccc2-c2ccccc2)C1`: the inhibition amounted to 14.4%.

Turning to `Cn1cc(/C=C2/C(=O)Nc3cccnc32)c2ccccc21`, the inhibition worked out at 109%.

Regarding `Cc1[nH]c(/C=C2\C(=O)Nc3cc(-c4ccccc4)ccc32)c(C)c1CCC(=O)O`, the inhibition stood at 90.4%.

On to `NS(=O)(=O)c1cc2c(cc1Cl)N=C(CSCc1ccccc1)NS2(=O)=O`, for which the inhibition came out at 42.3%.

With `N#Cc1c(O)c2c(-c3ccc(-c4ccccc4O)cc3)csc2[nH]c1=O`, the inhibition was 57.7%.

Turning to `COc1ccc(-c2cc(=O)c3c(O)cc(O)cc3o2)cc1O`, the inhibition is 102%.

Regarding `COc1ccc(Nc2ccn(-c3ccccc3)n2)cc1`, the inhibition is 111%.

On to `COc1ccc(-c2nc(N3CCOCC3)c3sc(CN(C)c4ncc(C(=O)NO)cn4)cc3n2)cn1`, for which the inhibition was 104%.

As to `CC(C)Oc1ccc2c(=O)c3cc(C(=O)O)ccc3oc2c1`, the inhibition was determined as 64.7%.

For `CC(C)(C)c1ccc(C(=O)Nc2cn3cc(-n4ccnc4)ccc3n2)cc1`, the inhibition is 67.2%.

For `Cc1c(-c2ccc(O)cc2)n(Cc2ccc(OCCN3CCCCCC3)cc2)c2ccc(O)cc12`, the inhibition came to 97.7%.

Take `O=C(/C=C/c1ccc2c(c1)OCO2)N1CCCCC1`: the inhibition came out at 89.8%.

On to `O=C(O)c1ccc2nc(-c3cc(Cl)cc(Cl)c3)oc2c1`, for which the inhibition stood at 88.2%.

As to `COc1cc(OC)cc(-c2ccc3c(-c4ccc(F)cc4)n[nH]c3n2)c1`, the inhibition worked out at 47.1%.

In the case of `COc1ccc(N(C(=O)Oc2c(C)cccc2C)c2ccnc(Nc3ccc(N4CCN(C)CC4)cc3)n2)c(OC)c1`, the inhibition is -5.43%.

`CC(C)(C)c1[nH]cnc1/C=c1\[nH]c(=O)/c(=C/c2ccccc2)[nH]c1=O`: the inhibition was determined as 80.7%.

On to `O=C(Oc1ccccc1)c1ccccc1O`, for which the inhibition is 67.9%.

As to `O=C(O)Cc1ccc2c(c1)C(=O)c1ccccc1CO2`, the inhibition was 64.3%.

For `O=C1Cc2c([nH]c3ccc(Br)cc23)-c2ccccc2N1`, the inhibition is 96.6%.

Turning to `N=C(NCCC[C@H](N)C(=O)O)N[N+](=O)[O-]`, the inhibition worked out at 0.71%.

For `COc1ccccc1OCC(O)COC(N)=O` (stereo not given), the inhibition came out at 8.29%.

With `c1ccc(CCNc2nc(-c3ccccc3)cs2)cc1`, the inhibition was 96.5%.

With `C#C[C@]1(OC(C)=O)CC[C@H]2[C@@H]3CCC4=C/C(=N/O)CC[C@@H]4[C@H]3CC[C@@]21CC`, the inhibition was determined as 17.1%.

Turning to `O=C(/C=C/c1ccc(O)c(O)c1)OCCc1ccccc1`, the inhibition worked out at 47.2%.

Regarding `O=C1C(Cl)=C(N2CCOCC2)C(=O)N1c1ccc(Cl)c(Cl)c1`, the inhibition amounted to 83.8%.

As to `N#C/C(=C\c1ccc(O)c(O)c1)C(=O)NCCCc1ccccc1`, the inhibition is 33.8%.

For the compound `CC(=O)Oc1ccccc1C(=O)Nc1ncc([N+](=O)[O-])s1`, the inhibition was 110%.

In the case of `CN(Cc1ccccc1)C(=O)[C@H](Cc1ccc2ccccc2c1)NC(=O)[C@@H]1C[C@@H](O)CN1C(=O)c1cn(C)c2ccccc12`, the inhibition worked out at 6.39%.

Regarding `O=C(Nc1ccc(Br)cc1)c1cc(Br)cc(Br)c1O`, the inhibition is 30.8%.

In the case of `CCOc1ccc(S(=O)(=O)O)c2cccnc12`, the inhibition is -1.18%.

With `COc1ccc(-c2nc3cc(C4=NNC(=O)CC4C)ccc3[nH]2)cc1` (stereo not given), the inhibition amounted to 97.8%.

Turning to `CCOc1cc(/C=C2/C(=O)N(c3ccccc3)N=C2C)cc(Cl)c1OCC(=O)OC`, the inhibition was 16.6%.

In the case of `O=C(/C=C/c1ccccc1)NCCO`, the inhibition came to 50.5%.

Turning to `CN1CCc2c(c3ccccc3n2Cc2ccc(C(=O)NO)cc2)C1`, the inhibition was found to be 99.5%.

As for `O=C(Nc1ccc2[nH]ccc2c1)c1ccccc1`, the inhibition was found to be 86.3%.

`O=C1NC(=O)/C(=C/c2ccc(-c3ccc(F)cc3O)o2)S1`: the inhibition worked out at 94.9%.

Consider `Cc1cc(C)c(/C=C2\C(=O)Nc3ccccc32)[nH]1`, for which the inhibition stood at 36.4%.

As for `O=C(/C=C/c1ccc(O)cc1)c1ccc(O)cc1O`, the inhibition is 97.8%.

On to `O=C1OC2(c3cc(I)c(O)c(I)c3Oc3c2cc(I)c(O)c3I)c2c(Cl)c(Cl)c(Cl)c(Cl)c21`, for which the inhibition was 68.7%.

`O=c1c2ccccc2oc2ccccc12`: the inhibition came to 61.8%.

Consider `C[C@@H]1CC(=O)c2c(ccc3c2C(=O)c2cccc(O)c2C3=O)C1`, for which the inhibition turned out to be 105%.

Consider `O=C(CCCCCN1C(=O)c2cccc3cccc(c23)C1=O)NO`, for which the inhibition was found to be 104%.

For `COC(=O)Nc1nc2cc(SC(C)C)ccc2[nH]1`, the inhibition stood at 87.7%.

Turning to `Cc1cc(C)c(S(=O)(=O)Nc2cccc(C(F)(F)F)c2)c(C)c1`, the inhibition was -5.7%.

On to `Cc1nc2ccc(-n3ncc(C(=O)c4cc5ccccc5[nH]4)c3N)cc2[nH]1`, for which the inhibition worked out at 112%.

As to `Nc1ccc(/N=N/c2ccccc2)c(N)n1`, the inhibition was determined as 106%.

Take `O=C(NCc1ccc2c(c1)OCO2)c1c(Cl)cccc1Cl`: the inhibition was 17.4%.

On to `CCCCOC(=O)c1cc2c(cn1)[nH]c1ccccc12`, for which the inhibition worked out at 91.6%.

`Nc1cc2c3ccccc3ccc2c2ccccc12`: the inhibition worked out at 24.2%.
